Test results taken from patent publication US9850203B2, “Autotaxin inhibitor compounds” (PharmAkea, Inc., priority 2013, dated 2017).

Molecular target: human autotaxin (ATX) (Homo sapiens (Human), UniProt Q13822)
Assay: Human Autotaxin Assay
Format: biochemical
Conditions: concentrated conditioned media from Hep3B cells; LPC substrate, choline release
Procedure: ATX activity is assayed in concentrated conditioned media from Hep3B human hepatocellular carcinoma cells by measuring the amount of choline released from the substrate, lysophosphatidylcholine (LPC) as it is cleaved to LPA. Conditioned media is collected from confluent Hep3B cells and concentrated 20-fold using Centriprep-30 filter devices (Millipore). To assay for autotaxin inhibition, 10-20 μL of the concentrated conditioned media is incubated with 2.5 μL of a test compound in DMSO and 72.5-82.5 μL lyso-PLD buffer (100 mM Tris pH 9, 500 mM NaCl, 5 mM MgCl2, 5 mM CaCl2, 0.05% Triton X-100 in the presence or absence of 0.2% fatty-acid-free human serum albumin) for 15 min at 37° C. After the 15 min incubation, 5 uL of 2 mM LPC (14:0; Avanti Polar Lipids Cat#855575C) diluted in lyso-PLD buffer is added for a final concentration of 100 uM and the incubation continues for 1.5-3 hours at 37° C.

SMILES: Cc1c(Sc2cccc(C(=O)O)c2)c2ccc(Cl)c(F)c2n1CC(=O)N1CCC(C)(C)CC1 [Compound 1-44, 3-((6-Chloro-1-(2-(4,4-dimethylpiperidin-1-yl)-2-oxoethyl)-7-fluoro-2-methyl-1H-indol-3-yl)thio)benzoic acid]
- IC50: ≤ 500 nM

SMILES: Cc1c(Sc2cccc(C(=O)O)c2F)c2ccc(Cl)c(F)c2n1CC(=O)N1C[C@H](O)[C@@H](N2CCN(C)CC2)C1 [Compound 2-70, 3-((6-Chloro-7-fluoro-1-(2-((3S,4S)-3-hydroxy-4-(4-methylpiperazin-1-yl)pyrrolidin-1-yl)-2-oxoethyl)-2-methyl-1H-indol-3-yl)thio)-2-fluorobenzoic acid]
- IC50: ≤ 500 nM

SMILES: Cc1c(Sc2cccc(C(=O)O)c2)c2ccc(Cl)c(F)c2n1CC(=O)N1CCC(c2cnn(C)c2)C1 (centres unmarked) [Compound 1-96, 3-((6-Chloro-7-fluoro-2-methyl-1-(2-(3-(1-methyl-1H-pyrazol-4-yl)pyrrolidin-1-yl)-2-oxoethyl)-1H-indol-3-yl)thio)benzoic acid]
- IC50: ≤ 500 nM

SMILES: Cc1c(Sc2cccc(C(=O)O)c2)c2ccc(Cl)c(F)c2n1CC(=O)N(C)c1ccccc1 [Compound 1-8, 3-((6-Chloro-7-fluoro-2-methyl-1-(2-(methyl(phenyl)amino)-2-oxoethyl)-1H-indol-3-yl)thio)benzoic acid]
- IC50: 500 to 3000 nM

SMILES: Cc1c(Sc2cccc(C(=O)O)c2)c2ccc(Cl)c(F)c2n1CC(=O)N1CCC(c2ccc(F)cc2)C1 (single isomer, unassigned; enantiomer b) [Compound 1-75, 3-((6-Chloro-7-fluoro-1-(2-(3-(4-fluorophenyl)pyrrolidin-1-yl)-2-oxoethyl)-2-methyl-1H-indol-3-yl)thio)benzoic acid Enantiomer B]
- IC50: ≤ 500 nM

SMILES: Cc1c(Sc2cccc(C(=O)O)c2)c2ccc(Cl)c(F)c2n1CC(=O)NC1CCCCC1 [Compound 1-2, 3-((6-Chloro-1-(2-(cyclohexylamino)-2-oxoethyl)-7-fluoro-2-methyl-1H-indol-3-yl)thio)benzoic acid]
- IC50: 500 to 3000 nM

SMILES: Cc1c(Sc2cccc(C(=O)O)c2)c2ccc(Cl)c(F)c2n1CC(=O)N1CCC(O)(C(F)(F)F)C1 (centres unmarked) [Compound 1-37, 3-((6-Chloro-7-fluoro-1-(2-(3-hydroxy-3-(trifluoromethyl)pyrrolidin-1-yl)-2-oxoethyl)-2-methyl-1H-indol-3-yl)thio)benzoic acid]
- IC50: ≤ 500 nM

SMILES: Cc1c(Sc2cccc(C(=O)O)c2F)c2ccc(Cl)c(F)c2n1CC(=O)N1CC2(CCCC2)c2ccccc21 [Compound 3-221, 3-((6-Chloro-7-fluoro-2-methyl-1-(2-oxo-2-(spiro[cyclopentane-1,3′-indolin]-1′-yl)ethyl)-1H-indol-3-yl)thio)-2-fluorobenzoic acid]
- IC50: ≤ 500 nM

SMILES: Cc1c(Sc2cccc(C(=O)O)c2)c2ccc(Cl)c(F)c2n1CC(=O)N1CCC(Cc2ccncc2)C1 (centres unmarked) [Compound 1-88, 3-((6-Chloro-7-fluoro-2-methyl-1-(2-oxo-2-(3-(pyridin-4-ylmethyl)pyrrolidin-1-yl)ethyl)-1H-indol-3-yl)thio)benzoic acid]
- IC50: ≤ 500 nM

SMILES: Cc1c(Sc2cccc(C(=O)O)c2F)c2ccc(Cl)c(F)c2n1CC(=O)N1CCC(C)(O)C1 (centres unmarked) [Compound 2-61, 3-((6-Chloro-7-fluoro-1-(2-(3-hydroxy-3-methylpyrrolidin-1-yl)-2-oxoethyl)-2-methyl-1H-indol-3-yl)thio)-2-fluorobenzoic acid]
- IC50: ≤ 500 nM

SMILES: Cc1c(Sc2cccc(C(=O)O)c2)c2ccc(Cl)c(F)c2n1CC(=O)N1CCc2ccccc2C1 [Compound 1-79, 3-((6-Chloro-1-(2-(3,4-dihydroisoquinolin-2(1H)-yl)-2-oxoethyl)-7-fluoro-2-methyl-1H-indol-3-yl)thio)benzoic acid]
- IC50: ≤ 500 nM

SMILES: Cc1c(Sc2cccc(C(=O)O)c2)c2ccc(Cl)c(F)c2n1CC(=O)N1CCC2(CC1)CNC(=O)C2 [Compound 1-45, 3-((6-Chloro-7-fluoro-2-methyl-1-(2-oxo-2-(3-oxo-2,8-diazaspiro[4.5]decan-8-yl)ethyl)-1H-indol-3-yl)thio)benzoic acid]
- IC50: ≤ 500 nM

SMILES: Cc1c(Sc2cccc(C(=O)O)c2)c2ccc(Cl)c(F)c2n1CC(=O)N1CCC(O)C1 (centres unmarked) [Compound 1-90, 3-((6-Chloro-7-fluoro-1-(2-(3-hydroxypyrrolidin-1-yl)-2-oxoethyl)-2-methyl-1H-indol-3-yl)thio)benzoic acid]
- IC50: ≤ 500 nM

SMILES: Cc1c(Sc2cccc(C(=O)O)c2F)c2ccc(Cl)c(F)c2n1CC(=O)N1CC2(CC2)c2cc(F)ccc21 [Compound 3-23, 3-[6-Chloro-7-fluoro-1-[2-(5′-fluorospiro[cyclopropane-1,3′-indoline]-1′-yl)-2-oxo-ethyl]-2-methyl-indol-3-yl]sulfanyl-2-fluoro-benzoic acid]
- IC50: ≤ 500 nM

SMILES: Cc1c(Sc2cccc(C(=O)O)c2)c2ccc(Cl)c(F)c2n1CC(=O)N1CCc2ccc(Cl)cc21 [Compound 1-73, 3-((6-Chloro-1-(2-(6-chloroindolin-1-yl)-2-oxoethyl)-7-fluoro-2-methyl-1H-indol-3-yl)thio)benzoic acid]
- IC50: ≤ 500 nM

SMILES: Cc1c(Sc2cccc(C(=O)O)c2)c2ccc(Cl)c(F)c2n1CC(=O)N1CC(n2cccn2)C1 [Compound 1-86, 3-((1-(2-(3-(1H-Pyrazol-1-yl)azetidin-1-yl)-2-oxoethyl)-6-chloro-7-fluoro-2-methyl-1H-indol-3-yl)thio)benzoic acid]
- IC50: ≤ 500 nM

SMILES: Cc1c(Sc2cccc(C(=O)O)c2)c2ccc(Cl)c(F)c2n1CC(=O)N1CC2(CCC2)c2c(F)cccc21 [Compound 1-33, 3-((6-Chloro-7-fluoro-1-(2-(4′-fluorospiro[cyclobutane-1,3′-indolin]-1′-yl)-2-oxoethyl)-2-methyl-1H-indol-3-yl)thio)benzoic acid]
- IC50: ≤ 500 nM

SMILES: Cc1c(Sc2cccc(C(=O)O)c2)c2ccc(Cl)c(F)c2n1CC(=O)N1CCc2cc(Cl)ccc21 [Compound 1-71, 3-((6-Chloro-1-(2-(5-chloroindolin-1-yl)-2-oxoethyl)-7-fluoro-2-methyl-1H-indol-3-yl)thio)benzoic acid]
- IC50: ≤ 500 nM

SMILES: Cc1c(Sc2cccc(C(=O)O)c2)c2ccc(Cl)c(F)c2n1CC(=O)Nc1cnn(C)c1 [Compound 1-6, 3-((6-Chloro-7-fluoro-2-methyl-1-(2-((1-methyl-1H-pyrazol-4-yl)amino)-2-oxoethyl)-1H-indol-3-yl)thio)benzoic acid]
- IC50: ≤ 500 nM

SMILES: Cc1c(Sc2cccc(C(=O)O)c2)c2ccc(Cl)c(F)c2n1CC(=O)N1CCC2(CCN(Cc3ccccc3)CC2)C1 [Compound 1-67, 3-((1-(2-(8-Benzyl-2,8-diazaspiro[4.5]decan-2-yl)-2-oxoethyl)-6-chloro-7-fluoro-2-methyl-1H-indol-3-yl)thio)benzoic acid]
- IC50: 500 to 3000 nM

SMILES: O=C(O)c1cccc(Sc2c(Cl)n(CCN3CC4(CCC4)c4ccccc43)c3c(F)c(Cl)ccc23)c1F [Compound 5-1, Sodium 3-((2,6-dichloro-7-fluoro-1-(2-(spiro[cyclobutane-1,3′-indolin]-1′-yl)ethyl)-1H-indol-3-yl)thio)-2-fluorobenzoate]
- IC50: ≤ 500 nM

SMILES: Cc1c(Sc2cccc(C(=O)O)c2)c2ccc(Cl)c(F)c2n1CC(=O)N1CC2(CC2)c2cc(F)ccc21 [Compound 1-32, 3-((6-Chloro-7-fluoro-1-(2-(5′-fluorospiro[cyclopropane-1,3′-indolin]-1′-yl)-2-oxoethyl)-2-methyl-1H-indol-3-yl)thio)benzoic acid]
- IC50: ≤ 500 nM

SMILES: O=C(O)c1cccc(Sc2c(C3CC3)n(CCN3CCc4ccccc43)c3c(F)c(Cl)ccc23)c1F [Compound 5-4, Sodium 3-((6-chloro-2-cyclopropyl-7-fluoro-1-(2-(indolin-1-yl)ethyl)-1H-indol-3-yl)thio)-2-fluorobenzoate]
- IC50: ≤ 500 nM

SMILES: Cc1c(Sc2cccc(C(=O)O)c2)c2ccc(Cl)c(F)c2n1CC(=O)N1CCCC1 [Compound 1-9, 3-((6-Chloro-7-fluoro-2-methyl-1-(2-oxo-2-(pyrrolidin-1-yl)ethyl)-1H-indol-3-yl)thio)benzoic acid]
- IC50: ≤ 500 nM

SMILES: Cc1c(Sc2cccc(C(=O)O)c2)c2ccc(Cl)c(F)c2n1CC(=O)N1CCc2ccncc21 [Compound 1-97, 3-((6-Chloro-1-(2-(2,3-dihydro-1H-pyrrolo[2,3-c]pyridin-1-yl)-2-oxoethyl)-7-fluoro-2-methyl-1H-indol-3-yl)thio)benzoic acid]
- IC50: ≤ 500 nM

SMILES: Cc1c(Sc2cccc(C(=O)O)c2)c2ccc(Cl)c(F)c2n1CC(=O)N1CC(O)(C2CC2)C1 [Compound 1-82, 3-((6-Chloro-1-(2-(3-cyclopropyl-3-hydroxyazetidin-1-yl)-2-oxoethyl)-7-fluoro-2-methyl-1H-indol-3-yl)thio)benzoic acid]
- IC50: ≤ 500 nM

SMILES: Cc1c(Sc2cccc(C(=O)O)n2)c2ccc(Cl)c(F)c2n1CC(=O)N1CC2(CCC2)c2c(F)cccc21 [Compound 3-104, 6-((6-Chloro-7-fluoro-1-(2-(4′-fluorospiro[cyclobutane-1,3′-indolin]-1′-yl)-2-oxoethyl)-2-methyl-1H-indol-3-yl)thio)picolinic acid]
- IC50: ≤ 500 nM

SMILES: Cc1c(Sc2cccc(C(=O)O)c2F)c2ccc(Cl)c(F)c2n1CC(=O)N1CC2(CC2)c2ccccc21 [Compound 2-55, 3-((6-Chloro-7-fluoro-2-methyl-1-(2-oxo-2-(spiro[cyclopropane-1,3′-indolin]-1′-yl)ethyl)-1H-indol-3-yl)thio)-2-fluorobenzoic acid]
- IC50: ≤ 500 nM

SMILES: Cc1c(Sc2cccc(C(=O)O)c2)c2ccc(Cl)c(F)c2n1CC(=O)Nc1ccccc1 [Compound 1-3, 3-((6-Chloro-7-fluoro-2-methyl-1-(2-oxo-2-(phenylamino)ethyl)-1H-indol-3-yl)thio)benzoic acid]
- IC50: 500 to 3000 nM
